Measurements published in PubChem BioAssay AID504473 (NMMLSC, 2011).
The source made the active and inactive calls.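 The calls were made as follows: active = GFP ratio to DMSO above 1.5 or below 0.66; inactive = the rest.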

Tests used:
Assay in all cases: expression changes of rapamycin-responsive GFP fusion proteins, S. cerevisiae, GFP-tagged clone panel, flow cytometry (AID 504473);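 also: median GFP fluorescence of the cells measured by high-throughput flow cytometry; test concentration not given here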
YLR058C = settings: S. cerevisiae GFP-tagged strains, 3 h
YER081W = settings: S. cerevisiae GFP-tagged strains, 3 h
YMR120C = settings: S. cerevisiae GFP-tagged strains, 3 h
YDL204W = settings: S. cerevisiae GFP-tagged strains, 3 h
YPL220W = settings: S. cerevisiae GFP-tagged strains, 3 h
YPR132W = settings: S. cerevisiae GFP-tagged strains, 3 h
YMR105C = settings: S. cerevisiae GFP-tagged strains, 3 h
YKL119C = settings: S. cerevisiae GFP-tagged strains, 3 h
YGL135W = settings: S. cerevisiae GFP-tagged strains, 3 h
YCL064C = settings: S. cerevisiae GFP-tagged strains, 3 h
YEL060C = settings: S. cerevisiae GFP-tagged strains, 3 h
YHR141C = settings: S. cerevisiae GFP-tagged strains, 3 h
YPL111W = settings: S. cerevisiae GFP-tagged strains, 3 h
YNR001C = settings: S. cerevisiae GFP-tagged strains, 3 h
YGL062W = settings: S. cerevisiae GFP-tagged strains, 3 h
YAL060W = settings: S. cerevisiae GFP-tagged strains, 3 h
YGL036W = settings: S. cerevisiae GFP-tagged strains, 3 h
YOR038C = settings: S. cerevisiae GFP-tagged strains, 3 h
YOR182C = settings: S. cerevisiae GFP-tagged strains, 3 h
YOL052C-A = settings: S. cerevisiae GFP-tagged strains, 3 h
YER151C = settings: S. cerevisiae GFP-tagged strains, 3 h
YMR251W-A = settings: S. cerevisiae GFP-tagged strains, 3 h
YDR453C = settings: S. cerevisiae GFP-tagged strains, 3 h
YLR237W = settings: S. cerevisiae GFP-tagged strains, 3 h
YGR088W = settings: S. cerevisiae GFP-tagged strains, 3 h
YHR087W = settings: S. cerevisiae GFP-tagged strains, 3 h
YEL007W = settings: S. cerevisiae GFP-tagged strains, 3 h
YPL131W = settings: S. cerevisiae GFP-tagged strains, 3 h
YFR053C = settings: S. cerevisiae GFP-tagged strains, 3 h
YJR148W = settings: S. cerevisiae GFP-tagged strains, 3 h
YLR142W = settings: S. cerevisiae GFP-tagged strains, 3 h
YIL052C = settings: S. cerevisiae GFP-tagged strains, 3 h
YKR039W = settings: S. cerevisiae GFP-tagged strains, 3 h
YNL015W = settings: S. cerevisiae GFP-tagged strains, 3 h
YIL066C = settings: S. cerevisiae GFP-tagged strains, 3 h
YNL112W = settings: S. cerevisiae GFP-tagged strains, 3 h
YFR031C-A = settings: S. cerevisiae GFP-tagged strains, 3 h
YJL056C = settings: S. cerevisiae GFP-tagged strains, 3 h
YBL087C = settings: S. cerevisiae GFP-tagged strains, 3 h
YHR018C = settings: S. cerevisiae GFP-tagged strains, 3 h
YCR002C = settings: S. cerevisiae GFP-tagged strains, 3 h
YML026C = settings: S. cerevisiae GFP-tagged strains, 3 h
YKL086W = settings: S. cerevisiae GFP-tagged strains, 3 h
YLR367W = settings: S. cerevisiae GFP-tagged strains, 3 h
YML004C = settings: S. cerevisiae GFP-tagged strains, 3 h
YMR307W = settings: S. cerevisiae GFP-tagged strains, 3 h
YGR034W = settings: S. cerevisiae GFP-tagged strains, 3 h
YLL039C = settings: S. cerevisiae GFP-tagged strains, 3 h
YLR287C-A = settings: S. cerevisiae GFP-tagged strains, 3 h
YOR063W = settings: S. cerevisiae GFP-tagged strains, 3 h
YOR371C = settings: S. cerevisiae GFP-tagged strains, 3 h
YEL071W = settings: S. cerevisiae GFP-tagged strains, 3 h
YJL144W = settings: S. cerevisiae GFP-tagged strains, 3 h
YML128C = settings: S. cerevisiae GFP-tagged strains, 3 h
YPL265W = settings: S. cerevisiae GFP-tagged strains, 3 h
YPR184W = settings: S. cerevisiae GFP-tagged strains, 3 h
YDR382W = settings: S. cerevisiae GFP-tagged strains, 3 h
YBR248C = settings: S. cerevisiae GFP-tagged strains, 3 h
YBR208C = settings: S. cerevisiae GFP-tagged strains, 3 h
YIL043C = settings: S. cerevisiae GFP-tagged strains, 3 h
YOR173W = settings: S. cerevisiae GFP-tagged strains, 3 h
[1] = biological target: General amino acid permease AGP1 (Saccharomyces cerevisiae S288c) (UniProt P25376); settings: S. cerevisiae GFP-tagged strains, 3 h, YCL025C
General amino acid permease AGP1 (Saccharomyces cerevisiae S288c), sequence (P25376 whole entry, looked up): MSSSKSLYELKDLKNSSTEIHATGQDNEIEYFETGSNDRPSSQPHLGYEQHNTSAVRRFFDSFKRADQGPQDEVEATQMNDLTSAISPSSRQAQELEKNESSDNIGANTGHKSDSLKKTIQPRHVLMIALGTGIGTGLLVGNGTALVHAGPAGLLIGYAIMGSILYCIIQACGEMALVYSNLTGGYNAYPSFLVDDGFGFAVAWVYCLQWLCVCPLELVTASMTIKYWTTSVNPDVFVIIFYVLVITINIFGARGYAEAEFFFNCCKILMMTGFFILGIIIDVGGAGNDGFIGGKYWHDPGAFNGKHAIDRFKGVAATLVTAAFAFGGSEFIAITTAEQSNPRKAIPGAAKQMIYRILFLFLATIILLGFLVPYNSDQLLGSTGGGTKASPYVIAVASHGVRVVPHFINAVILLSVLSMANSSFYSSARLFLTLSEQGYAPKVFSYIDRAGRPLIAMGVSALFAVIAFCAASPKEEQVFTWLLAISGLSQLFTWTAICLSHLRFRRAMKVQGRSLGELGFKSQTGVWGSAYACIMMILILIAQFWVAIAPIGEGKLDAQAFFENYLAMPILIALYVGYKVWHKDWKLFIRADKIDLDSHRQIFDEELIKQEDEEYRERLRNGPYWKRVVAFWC

YNL214W = settings: S. cerevisiae GFP-tagged strains, 3 h
YKL103C = settings: S. cerevisiae GFP-tagged strains, 3 h
YOR375C = settings: S. cerevisiae GFP-tagged strains, 3 h
YBR072W = settings: S. cerevisiae GFP-tagged strains, 3 h
YGL147C = settings: S. cerevisiae GFP-tagged strains, 3 h
YHR203C = settings: S. cerevisiae GFP-tagged strains, 3 h
YGR121C = settings: S. cerevisiae GFP-tagged strains, 3 h
YML063W = settings: S. cerevisiae GFP-tagged strains, 3 h
YML034W = settings: S. cerevisiae GFP-tagged strains, 3 h
YIL051C = settings: S. cerevisiae GFP-tagged strains, 3 h
YLR185W = settings: S. cerevisiae GFP-tagged strains, 3 h
YEL063C = settings: S. cerevisiae GFP-tagged strains, 3 h
YAL061W = settings: S. cerevisiae GFP-tagged strains, 3 h
YDL130W = settings: S. cerevisiae GFP-tagged strains, 3 h
YPR145W = settings: S. cerevisiae GFP-tagged strains, 3 h
YOR136W = settings: S. cerevisiae GFP-tagged strains, 3 h
YGR019W = settings: S. cerevisiae GFP-tagged strains, 3 h
YBR139W = settings: S. cerevisiae GFP-tagged strains, 3 h
YDR070C = settings: S. cerevisiae GFP-tagged strains, 3 h
YIL069C = settings: S. cerevisiae GFP-tagged strains, 3 h
YPL150W = settings: S. cerevisiae GFP-tagged strains, 3 h
YHL021C = settings: S. cerevisiae GFP-tagged strains, 3 h
YKR094C = settings: S. cerevisiae GFP-tagged strains, 3 h
YDR399W = settings: S. cerevisiae GFP-tagged strains, 3 h
YER117W = settings: S. cerevisiae GFP-tagged strains, 3 h
YNL068C = settings: S. cerevisiae GFP-tagged strains, 3 h
YCR005C = settings: S. cerevisiae GFP-tagged strains, 3 h
YER156C = settings: S. cerevisiae GFP-tagged strains, 3 h
YLL026W = settings: S. cerevisiae GFP-tagged strains, 3 h
YLR109W = settings: S. cerevisiae GFP-tagged strains, 3 h
YKR093W = settings: S. cerevisiae GFP-tagged strains, 3 h
YDL205C = settings: S. cerevisiae GFP-tagged strains, 3 h
YHR144C = settings: S. cerevisiae GFP-tagged strains, 3 h
YNL142W = settings: S. cerevisiae GFP-tagged strains, 3 h

`CO[C@H]1C[C@@H]2CC[C@@H](C)[C@@](O)(O2)C(=O)C(=O)N2CCCC[C@H]2C(=O)O[C@H]([C@H](C)C[C@@H]2CC[C@@H](O)[C@H](OC)C2)CC(=O)[C@H](C)/C=C(\C)[C@@H](O)[C@@H](OC)C(=O)[C@H](C)C[C@H](C)/C=C/C=C/C=C/1C` was tested, and the GFP ratio to DMSO (YLR058C) was 1.04 (inactive), the GFP ratio to DMSO (YER081W) was 1.08 (inactive) and the GFP ratio to DMSO (YMR120C) was 0.612. For the same molecule, the GFP ratio to DMSO (YDL204W) was 1.4 (inactive), the GFP ratio to DMSO (YPL220W) was 0.887 (inactive) and the GFP ratio to DMSO (YPR132W) was 0.366. The GFP ratio to DMSO (YMR105C) was 2.65, the GFP ratio to DMSO (YKL119C) was 1.03 (inactive) and the GFP ratio to DMSO (YGL135W) was 0.682 (inactive). The GFP ratio to DMSO (YCL064C) was 1.28 (inactive), the GFP ratio to DMSO (YEL060C) was 2.55 and the GFP ratio to DMSO (YHR141C) was 0.777 (inactive). The GFP ratio to DMSO (YPL111W) was 2.16, the GFP ratio to DMSO (YNR001C) was 1.7 and the GFP ratio to DMSO (YGL062W) was 2.27. The GFP ratio to DMSO (YAL060W) was 3.23, the GFP ratio to DMSO (YGL036W) was 0.919 (inactive) and the GFP ratio to DMSO (YOR038C) was 1.21 (inactive). The GFP ratio to DMSO (YOR182C) was 0.576, the GFP ratio to DMSO (YOL052C-A) was 2.68 and the GFP ratio to DMSO (YER151C) was 1.03 (inactive). For the same molecule, the GFP ratio to DMSO (YMR251W-A) was 1.96, the GFP ratio to DMSO (YDR453C) was 2.58 and the GFP ratio to DMSO (YLR237W) was 0.864 (inactive). For the same molecule, the GFP ratio to DMSO (YGR088W) was 2.06, the GFP ratio to DMSO (YHR087W) was 2.24 and the GFP ratio to DMSO (YEL007W) was 1.05 (inactive). The GFP ratio to DMSO (YPL131W) was 0.781 (inactive), the GFP ratio to DMSO (YFR053C) was 1.66 and the GFP ratio to DMSO (YJR148W) was 3.38. For the same molecule, the GFP ratio to DMSO (YLR142W) was 1.41 (inactive), the GFP ratio to DMSO (YIL052C) was 0.619 and the GFP ratio to DMSO (YKR039W) was 12.7. The GFP ratio to DMSO (YNL015W) was 1.88, the GFP ratio to DMSO (YIL066C) was 1.17 (inactive) and the GFP ratio to DMSO (YNL112W) was 0.73 (inactive). The GFP ratio to DMSO (YFR031C-A) was 0.481, the GFP ratio to DMSO (YJL056C) was 0.954 (inactive) and the GFP ratio to DMSO (YBL087C) was 0.33. For the same molecule, the GFP ratio to DMSO (YHR018C) was 1.54, the GFP ratio to DMSO (YCR002C) was 0.98 (inactive) and the GFP ratio to DMSO (YML026C) was 0.289. The GFP ratio to DMSO (YKL086W) was 1.49 (inactive), the GFP ratio to DMSO (YLR367W) was 0.635 and the GFP ratio to DMSO (YML004C) was 1.5 (inactive). For the same molecule, the GFP ratio to DMSO (YMR307W) was 0.685 (inactive), the GFP ratio to DMSO (YGR034W) was 0.689 (inactive) and the GFP ratio to DMSO (YLL039C) was 1.77. The GFP ratio to DMSO (YLR287C-A) was 0.625, the GFP ratio to DMSO (YOR063W) was 0.703 (inactive) and the GFP ratio to DMSO (YOR371C) was 1.06 (inactive). It also gave a GFP ratio to DMSO (YEL071W) of 2.11, a GFP ratio to DMSO (YJL144W) of 2.03 and a GFP ratio to DMSO (YML128C) of 2.56. For the same molecule, the GFP ratio to DMSO (YPL265W) was 3.22, the GFP ratio to DMSO (YPR184W) was 2.01 and the GFP ratio to DMSO (YDR382W) was 0.783 (inactive). For the same molecule, the GFP ratio to DMSO (YBR248C) was 1.11 (inactive), the GFP ratio to DMSO (YBR208C) was 3.04 and the GFP ratio to DMSO (YIL043C) was 0.996 (inactive). The GFP ratio to DMSO (YOR173W) was 1.86, the GFP ratio to DMSO [1] was 2.27 and the GFP ratio to DMSO (YNL214W) was 1.06 (inactive). For the same molecule, the GFP ratio to DMSO (YKL103C) was 2.8, the GFP ratio to DMSO (YOR375C) was 1.78 and the GFP ratio to DMSO (YBR072W) was 4.94. For the same molecule, the GFP ratio to DMSO (YGL147C) was 0.682 (inactive), the GFP ratio to DMSO (YHR203C) was 0.685 (inactive) and the GFP ratio to DMSO (YGR121C) was 1.72. The GFP ratio to DMSO (YML063W) was 0.714 (inactive), the GFP ratio to DMSO (YML034W) was 1.04 (inactive) and the GFP ratio to DMSO (YIL051C) was 1.4 (inactive). For the same molecule, the GFP ratio to DMSO (YLR185W) was 0.705 (inactive), the GFP ratio to DMSO (YEL063C) was 1.7 and the GFP ratio to DMSO (YAL061W) was 2.14. For the same molecule, the GFP ratio to DMSO (YDL130W) was 0.717 (inactive), the GFP ratio to DMSO (YPR145W) was 2.19 and the GFP ratio to DMSO (YOR136W) was 1.51. It also gave a GFP ratio to DMSO (YGR019W) of 1.93, a GFP ratio to DMSO (YBR139W) of 1.61 and a GFP ratio to DMSO (YDR070C) of 4.12. For the same molecule, the GFP ratio to DMSO (YIL069C) was 0.171, the GFP ratio to DMSO (YPL150W) was 1.04 (inactive) and the GFP ratio to DMSO (YHL021C) was 2.52. For the same molecule, the GFP ratio to DMSO (YKR094C) was 0.484, the GFP ratio to DMSO (YDR399W) was 0.946 (inactive) and the GFP ratio to DMSO (YER117W) was 0.304. The GFP ratio to DMSO (YNL068C) was 1.06 (inactive), the GFP ratio to DMSO (YCR005C) was 4.59 and the GFP ratio to DMSO (YER156C) was 1.05 (inactive). For the same molecule, the GFP ratio to DMSO (YLL026W) was 2.05, the GFP ratio to DMSO (YLR109W) was 1.43 (inactive) and the GFP ratio to DMSO (YKR093W) was 3.56. The GFP ratio to DMSO (YDL205C) was 0.898 (inactive), the GFP ratio to DMSO (YHR144C) was 0.869 (inactive) and the GFP ratio to DMSO (YNL142W) was 15.6.
